# Tests used:
# [1] = tested on: ER+/HER2− locally advanced or metastatic breast cancer; experiment: FIH Study Part A: clinical activity (CBR, ORR); format: in vivo, human
# Description: Based on a 6 Jun. 2023 data cut-off, evidence of preliminary clinical activity was observed, as assessed by CBR and ORR, in the monotherapy Part A dose escalation cohort of the FIH Study.
# Per protocol, the CBR evaluable analysis set included all treated patients who were enrolled at least 24 weeks prior to the data cut-off of analysis. CBR was defined as a confirmed CR or PR per RECIST v1.1 or SD with a minimum duration of 24 weeks.
# Per protocol, the response-evaluable analysis set included all treated patients who had measurable disease at baseline and ORR was based on confirmed responses per RECIST v1.1.
# [2] = tested on: ER+/HER2− locally advanced/metastatic breast cancer; experiment: FIH Study Part B (VERITAC): clinical benefit rate, PFS; format: in vivo, human
# Description: The primary endpoint was clinical benefit rate (CBR; rate of confirmed complete or partial response or stable disease ≥24 weeks).
# [3] = MCF7/estradiol xenograft tumor growth inhibition; format: in vivo, mouse; conditions: in vivo, oral; mouse, 30 mg/kg; read-out: mean AUC0-24
# Protocol: (§1) The 30 mg/kg dose was associated with a mean AUC0-24 of 5,717 ng·h/mL. The tumor ER levels were reduced by ≥94% at all doses compared to mice administered vehicle only (FIG. 3B).
# (§2) The 30 mg/kg dose was associated with a mean AUC0-24 of 5,717 ng·h/mL.
# MCF7/estradiol xenograft = MCF7/estradiol xenograft tumor growth inhibition; format: in vivo, mouse
# Protocol: as §1, §2
# SALL4 = target: T1, SALL4 (Homo sapiens, UniProt Q9UJQ4); experiment: Cereblon neomorphic substrate degradation, SALL4; format: cell-based
# T1 construct: host or cells: two unnamed cell lines
# Description: These drugs bind to cereblon and promote the degradation of novel (neomorphic) substrates.
# [4] = 3-month GLP oral toxicity study in dogs; format: in vivo, dog; conditions: for Cmax / AUC(0-t): plasma, po, Day 91; for AUC(0-t): read-out: AUC0-24
# Protocol: Male and female Beagle dogs, 4/sex/group, were administered 0 (vehicle), 10, 30, or 90 mg/kg/day. Assessment of toxicity was based on clinical observations, BWs, food consumption, ophthalmology, ECG evaluations, and clinical and anatomic pathology.
# P-gp = P-gp (Homo sapiens, UniProt P08183); experiment: Efflux transporter substrate assessment (inside-out vesicular assay), P-gp; format: in vitro ADME
# [5] = tested on: cultured human peripheral blood lymphocytes; experiment: In vitro micronucleus assay; format: cell-based; conditions: 3+21 hours ± S9; 24+24 hours −S9
# Protocol: Compound A was tested in a GLP-compliant in vitro micronucleus assay.
# [6] = Biopharmaceutics Classification System; format: physicochemical; conditions: low solubility/low permeability
# [7] = Preliminary embryo-fetal development study
# [8] = Clinical Pharmacology Study: adverse events in healthy volunteers
# Description: The severity of adverse events was graded according to the National Cancer Institute Common Terminology Criteria for Adverse Events (NCI CTCAE) version 5.0.
# [9] = Beagle, dog, female dogs, 90 mg/kg/day
# [10] = Beagle, dog, male dogs, 90 mg/kg/day
# [11] = female, Sprague-Dawley, rat, in vivo, oral, 30 mg/kg/day
# T1 sequence (Q96SW2 whole entry partner, species assumed): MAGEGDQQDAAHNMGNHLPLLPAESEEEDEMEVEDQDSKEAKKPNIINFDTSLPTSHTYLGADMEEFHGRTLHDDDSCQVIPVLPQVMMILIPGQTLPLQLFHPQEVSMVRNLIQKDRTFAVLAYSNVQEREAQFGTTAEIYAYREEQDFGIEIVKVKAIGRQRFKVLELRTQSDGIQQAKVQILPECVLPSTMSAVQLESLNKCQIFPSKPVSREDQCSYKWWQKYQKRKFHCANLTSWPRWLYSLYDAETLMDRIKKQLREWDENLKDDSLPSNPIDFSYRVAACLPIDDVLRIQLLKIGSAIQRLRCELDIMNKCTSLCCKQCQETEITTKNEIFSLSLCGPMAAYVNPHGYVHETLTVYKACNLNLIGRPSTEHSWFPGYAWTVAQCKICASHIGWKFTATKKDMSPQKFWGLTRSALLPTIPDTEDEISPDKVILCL
# T1 sequence (Q16531 whole entry partner, species assumed): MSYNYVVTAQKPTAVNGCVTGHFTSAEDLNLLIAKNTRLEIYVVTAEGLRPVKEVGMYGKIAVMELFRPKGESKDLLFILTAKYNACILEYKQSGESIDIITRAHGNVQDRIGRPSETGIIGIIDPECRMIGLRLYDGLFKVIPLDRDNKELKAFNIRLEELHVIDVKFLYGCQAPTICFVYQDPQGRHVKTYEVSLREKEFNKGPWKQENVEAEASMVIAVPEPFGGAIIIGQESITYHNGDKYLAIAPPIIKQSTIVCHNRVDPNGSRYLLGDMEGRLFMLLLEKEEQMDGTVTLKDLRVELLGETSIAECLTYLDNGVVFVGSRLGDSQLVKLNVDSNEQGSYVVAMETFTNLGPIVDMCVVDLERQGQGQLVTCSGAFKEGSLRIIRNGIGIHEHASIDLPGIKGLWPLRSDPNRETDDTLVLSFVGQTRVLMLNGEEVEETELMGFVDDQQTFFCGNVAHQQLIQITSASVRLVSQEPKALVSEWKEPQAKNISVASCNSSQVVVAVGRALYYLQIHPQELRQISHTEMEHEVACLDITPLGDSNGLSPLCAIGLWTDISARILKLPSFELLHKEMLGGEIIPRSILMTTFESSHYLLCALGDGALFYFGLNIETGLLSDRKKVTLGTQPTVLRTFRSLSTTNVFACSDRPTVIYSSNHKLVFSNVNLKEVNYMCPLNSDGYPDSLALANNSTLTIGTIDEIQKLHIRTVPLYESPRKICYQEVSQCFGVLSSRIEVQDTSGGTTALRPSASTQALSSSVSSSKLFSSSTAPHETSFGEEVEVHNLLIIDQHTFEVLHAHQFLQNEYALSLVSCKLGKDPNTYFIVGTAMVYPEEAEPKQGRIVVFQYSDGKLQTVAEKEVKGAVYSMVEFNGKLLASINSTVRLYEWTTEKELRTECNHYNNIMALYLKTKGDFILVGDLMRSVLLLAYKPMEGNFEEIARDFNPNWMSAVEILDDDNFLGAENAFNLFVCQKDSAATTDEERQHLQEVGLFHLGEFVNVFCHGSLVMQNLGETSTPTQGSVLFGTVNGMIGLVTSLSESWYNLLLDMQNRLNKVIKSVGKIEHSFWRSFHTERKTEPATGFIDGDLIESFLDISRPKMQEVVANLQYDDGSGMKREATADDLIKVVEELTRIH
# T1 sequence (Q9UJQ4 whole entry, species assumed): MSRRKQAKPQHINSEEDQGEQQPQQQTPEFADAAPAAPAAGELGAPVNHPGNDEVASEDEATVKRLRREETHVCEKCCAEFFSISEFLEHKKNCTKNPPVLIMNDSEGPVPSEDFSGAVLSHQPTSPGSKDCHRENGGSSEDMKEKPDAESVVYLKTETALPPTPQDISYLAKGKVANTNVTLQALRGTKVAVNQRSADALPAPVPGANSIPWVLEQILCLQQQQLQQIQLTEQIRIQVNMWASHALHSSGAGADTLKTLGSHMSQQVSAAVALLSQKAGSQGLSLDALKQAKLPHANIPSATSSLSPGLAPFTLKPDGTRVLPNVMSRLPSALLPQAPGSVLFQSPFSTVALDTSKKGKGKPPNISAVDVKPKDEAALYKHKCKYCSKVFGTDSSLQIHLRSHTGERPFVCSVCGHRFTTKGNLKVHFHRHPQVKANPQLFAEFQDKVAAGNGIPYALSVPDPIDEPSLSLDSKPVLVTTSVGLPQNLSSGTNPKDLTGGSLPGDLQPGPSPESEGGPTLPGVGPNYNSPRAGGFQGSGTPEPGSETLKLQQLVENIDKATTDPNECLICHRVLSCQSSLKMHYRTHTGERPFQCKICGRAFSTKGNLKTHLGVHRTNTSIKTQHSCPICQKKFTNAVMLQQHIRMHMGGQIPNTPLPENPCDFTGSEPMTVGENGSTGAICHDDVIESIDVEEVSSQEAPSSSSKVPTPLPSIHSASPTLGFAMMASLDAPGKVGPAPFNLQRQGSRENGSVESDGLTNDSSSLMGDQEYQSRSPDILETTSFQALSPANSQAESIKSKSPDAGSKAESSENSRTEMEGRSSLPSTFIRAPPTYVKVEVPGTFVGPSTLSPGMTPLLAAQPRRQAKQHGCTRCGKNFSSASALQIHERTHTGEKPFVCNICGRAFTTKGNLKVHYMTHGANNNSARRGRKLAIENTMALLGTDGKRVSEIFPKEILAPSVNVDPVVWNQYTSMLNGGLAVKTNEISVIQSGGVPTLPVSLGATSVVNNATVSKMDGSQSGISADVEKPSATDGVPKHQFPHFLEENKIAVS
# Chain of P-gp (P08183 whole entry): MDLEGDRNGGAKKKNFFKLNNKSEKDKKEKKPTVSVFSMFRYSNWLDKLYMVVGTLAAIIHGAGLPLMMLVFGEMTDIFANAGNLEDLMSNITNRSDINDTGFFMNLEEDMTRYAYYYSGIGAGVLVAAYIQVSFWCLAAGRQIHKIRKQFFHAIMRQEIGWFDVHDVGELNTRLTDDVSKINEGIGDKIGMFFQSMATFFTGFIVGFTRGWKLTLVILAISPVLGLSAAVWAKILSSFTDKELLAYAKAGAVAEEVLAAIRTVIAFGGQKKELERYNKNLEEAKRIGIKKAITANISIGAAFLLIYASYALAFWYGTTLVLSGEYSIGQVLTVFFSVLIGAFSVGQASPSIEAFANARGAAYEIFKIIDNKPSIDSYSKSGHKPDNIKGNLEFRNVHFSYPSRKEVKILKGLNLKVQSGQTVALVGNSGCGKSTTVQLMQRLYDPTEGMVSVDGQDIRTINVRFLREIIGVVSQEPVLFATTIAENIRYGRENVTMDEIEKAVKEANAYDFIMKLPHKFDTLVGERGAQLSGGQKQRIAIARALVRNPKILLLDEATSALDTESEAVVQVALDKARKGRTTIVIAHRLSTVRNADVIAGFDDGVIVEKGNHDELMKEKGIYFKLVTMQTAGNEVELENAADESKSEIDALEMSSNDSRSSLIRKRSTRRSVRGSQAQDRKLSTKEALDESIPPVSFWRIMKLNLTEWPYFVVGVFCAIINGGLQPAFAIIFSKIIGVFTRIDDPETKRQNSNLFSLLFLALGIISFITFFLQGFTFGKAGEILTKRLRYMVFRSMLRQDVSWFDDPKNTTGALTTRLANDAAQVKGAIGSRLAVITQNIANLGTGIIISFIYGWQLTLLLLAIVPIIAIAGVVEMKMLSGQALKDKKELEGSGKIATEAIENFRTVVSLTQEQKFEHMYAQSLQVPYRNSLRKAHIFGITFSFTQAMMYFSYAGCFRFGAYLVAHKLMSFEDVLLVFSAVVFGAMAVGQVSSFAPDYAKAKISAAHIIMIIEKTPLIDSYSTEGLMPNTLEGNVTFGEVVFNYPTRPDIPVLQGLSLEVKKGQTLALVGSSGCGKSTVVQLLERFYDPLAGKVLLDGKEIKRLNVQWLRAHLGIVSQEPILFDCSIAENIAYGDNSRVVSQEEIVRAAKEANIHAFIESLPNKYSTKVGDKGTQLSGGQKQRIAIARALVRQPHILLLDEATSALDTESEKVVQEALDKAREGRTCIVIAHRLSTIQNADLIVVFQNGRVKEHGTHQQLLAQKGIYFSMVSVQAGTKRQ
compound,measurement,setting,value
"O=C1CC[C@H](N2Cc3cc(N4CCN(CC5CCN(c6ccc([C@@H]7c8ccc(O)cc8CC[C@@H]7c7ccccc7)cc6)CC5)CC4)ccc3C2=O)C(=O)N1 [Compound A, (S)-3-(5-(4-((1-(4-((1R,2S)-6-hydroxy-2-phenyl-1,2,3,4-tetrahydronaphthalen-1-yl)phenyl)piperidin-4-yl)methyl)piperazin-1-yl)-1-oxoisoindolin-2-yl)piperidine-2,6-dione]",ORR,"[1]; 7 of 61 response-evaluable, confirmed PR, 95% CI 4.7%, 22.2%",11.5%
same,CBR,"[1]; 30 of 83 evaluable patients, 95% CI 25.9%, 47.4%, cut-off 6 Jun 2023",36.1%
same,CBR,"[1]; Phase 1, ESR1-mutant tumors",50%
same,CBR,"[1]; Phase 1, all patients",40%
same,CBR,"[2]; 200 mg QD, WT PIK3CA n=20, 95% CI 19-64",40.0%
same,CBR,"[2]; 200 mg QD, all evaluable n=35, Nov. 1, 2022, 95% CI 21-55",37.1%
same,CBR,"[2]; 200 mg QD, mutant ESR1 n=19, Nov. 1, 2022, 95% CI 24-71",47.4%
same,CBR,"[2]; 200 mg QD, mutant PIK3CA n=15, 95% CI 12-62",33.3%
same,CBR,[2]; ITT (n=71),38%
same,CBR,[2]; ITT ESR1m (n=41),51.2%
same,PFS,[2]; ITT ESR1m (n=41),5.7 months
same,CBR,[2]; no prior fulvestrant or chemotherapy in metastatic setting (n=8),62.5%
same,CBR,[2]; patients with WT ESR1 (n=25),20%
same,AUC(0-t),[3],5720 ng·h/mL
same,TGI,MCF7/estradiol xenograft; 3 mg/kg PO QD 28 days,85%
same,TGI,MCF7/estradiol xenograft; 10 mg/kg PO QD 28 days,98%
same,TGI,MCF7/estradiol xenograft; 30 mg/kg PO QD 28 days,124%
same,degradation of SALL4,SALL4; a different cell line,no SALL4 degradation
same,degradation of SALL4,SALL4; one cell line,some degradation activity
same,NOAEL at 3 months,"[4]; Beagle, dog, in vivo, oral, male dogs, 3 months",90 mg/kg/day
same,Cmax,[4]; [9],4250 ng/mL
same,AUC(0-t),[4]; [9],73100 ng·h/mL
same,Cmax,[4]; [10],4880 ng/mL
same,AUC(0-t),[4]; [10],83500 ng·h/mL
same,ECG intervals,"[4]; dog, 90 mg/kg/day, Day 85","nonadverse increases in QT-, QTc-, and PR-intervals"
same,NOAEL,"[4]; female dogs, 3 months",A NOAEL was not identified
same,substrate of P-gp,P-gp,unlikely to be a substrate
same,frequency of micronuclei,[5],did not induce biologically relevant increases
same,Biopharmaceutics Classification System class,[6],Class IV
same,TK animals confirmed pregnant at GD 18,[7]; 30 mg/kg,5/6
same,females with pregnancy confirmed at GD 21,[7]; 30 mg/kg,7/8
same,post implantation loss,[7]; 30 mg/kg/day,47.31%
same,mean number of live fetuses,"[7]; 30 mg/kg/day, controls 11.3",7.0 live fetuses/litter
same,TK animals confirmed pregnant at GD 18,[7]; 100 mg/kg,3/6
same,females with pregnancy confirmed at GD 21,[7]; 100 mg/kg,4/8
same,mean number of live fetuses,[7]; 100 mg/kg/day,no live fetuses/litter
same,post implantation loss,[7]; 100 mg/kg/day,100%
same,TK animals confirmed pregnant at GD 18,[7]; 300 mg/kg,0/6
same,females with pregnancy confirmed at GD 21,[7]; 300 mg/kg,0/8
same,AUC(0-t),[7]; [11],4380 ng·h/mL
same,Cmax,[7]; [11],291 ng/mL
same,external or visceral malformations or variations,"[7]; surviving fetuses, 30 mg/kg/day",did not produce any external or visceral malformations or variations
same,TRAEs of Grade 2 or higher,"[8]; 200 mg, healthy participants",no TRAEs of Grade 2 or higher were reported
same,tolerability,"[8]; 200 mg, healthy participants",well-tolerated
same,Grade 1 TEAEs,[8]; Fast/Fed cohort,21.4%
same,Grade 2 TEAEs,[8]; Fast/Fed cohort,14.3%
same,Grade 3 or higher TEAEs,[8]; Fast/Fed cohort,No participants reported Grade 3 or higher TEAEs
same,TEAE ligament sprain,[8]; Fast/Fed cohort n=14,14.3%
same,TRAE pollakiuria,[8]; Fast/Fed cohort n=14,7.1%
same,Grade 1 TEAEs,[8]; PPI cohort,47.1%
same,Grade 2 TEAEs,[8]; PPI cohort,5.9%
same,Grade 3 or higher TEAEs,[8]; PPI cohort,No participants reported Grade 3 or higher TEAEs
same,"TRAEs nausea, headache, pruritus, each",[8]; PPI cohort,5.9%
same,TEAE Headache,[8]; PPI cohort n=17,29.4%
same,participants with at least 1 TRAE,[8]; PPI cohort n=17,11.8%
same,participants with TEAE leading to discontinuation,"[8]; PPI cohort, due to COVID",One
same,"SAEs, SARs, deaths",[8]; all cohorts,"No SAEs, SARs or deaths were reported"
same,participants with at least 1 TRAE,[8]; all cohorts,3 of 47 participants
same,participants with TEAEs,"[8]; all cohorts, 200 mg",15 of 47 participants
same,TRAEs,[8]; rBA cohort n=16,No participants reported a TRAE
same,"participants with a TEAE (dizziness, Grade 1)",[8]; rBA cohort n=16,6.3%

# Reference: patent US20260069588A1, “VEPDEGESTRANT FOR USE IN TREATING CANCER” (Arvinas Operation, Inc., priority 2022, published 2026)
